In patent US20070003536A1, “Topical skin compositions, their preparation, and their use” (priority 2000, published 2007):

Assays:
[1] = target: T1, MMP-1 (interstitial collagenase) (Homo sapiens, UniProt P03956); assay: MMP-1 activity kit (Amersham); type: biochemical; conditions: samples diluted to 100 mg/ml using PBS; FIG. 5
T1 construct: purchased Amersham
T1 sequence (P03956 100-469): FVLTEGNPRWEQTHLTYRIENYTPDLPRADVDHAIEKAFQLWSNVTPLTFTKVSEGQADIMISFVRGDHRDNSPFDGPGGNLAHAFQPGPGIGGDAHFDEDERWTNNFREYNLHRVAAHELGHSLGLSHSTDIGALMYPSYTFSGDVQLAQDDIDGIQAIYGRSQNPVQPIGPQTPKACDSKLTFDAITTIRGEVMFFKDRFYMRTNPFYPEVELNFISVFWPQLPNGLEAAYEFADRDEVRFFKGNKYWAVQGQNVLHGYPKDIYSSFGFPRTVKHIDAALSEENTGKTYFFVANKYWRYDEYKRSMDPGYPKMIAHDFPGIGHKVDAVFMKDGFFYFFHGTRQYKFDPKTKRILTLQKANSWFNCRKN
Source text: FIG. 5 is a graph showing the effect of samples on MMP-1 activity. The data are expressed as % control MMP-1 activity. The horizontal line denotes 100% activity.
The matrix metalloproteinases (MMP) are a group of zinc dependent enzymes, which degrade varying components of the extracellular matrix in both normal and diseased tissue. MMP-1 (interstitial collagenase) is thought to initiate the cleavage of fibrillar collagen while MMP-9 (gelatinase) digests the denatured collagen fragments generated by MMP-1. The products of MMP-9 digestion are then free to be incorporated into new collagen fibrils. Elastase breaks down elastin. The expression of these enzymes is under strict control and changes as individuals age or are exposed to UV irradiation. Because MMP-1 is involved in initiation of collagen breakdown, it would be advantageous for skin care products to inhibit MMP-1 activity. […] Finally, elastase should be inhibited as to prevent digestion of elastin and the […] of the skin.
Commercially available kits were used for testing the effect of the samples on the activity of the MMPs of interest. For MMP-1, a kit from Amersham was used according to the manufacturer's specifications. For MMP-9 and Elastase, kits from Molecular Probes were used. The samples were prepared in the solvent noted in table I at stock concentrations of 100 mg/ml. […]

RAW 264.7 cells = assay: NO production by LPS stimulated RAW 264.7 cells (Griess reagent); type: cell-based, Murine; conditions: for inhibitory effect on nitrite accumulation in culture supernatants: LPS stimulated RAW cells, in words; for Nitrite produced: LPS 100 ng/ml, LPS control 901.7
Method: FIG. 8 is a graph showing the effect of samples on NO production by RAW 264.7 cells. Data are expressed as % NO produced compared to the LPS stimulated positive control. L6=Lipochroman-6, NT=Nutriene tocotrienols, TQS=γ-Tocopherylquinone S, VC=Viapure Citrus, SZ=Soybean Zymbiosome, and NPR=NAB Pikea robusta.
Cells in skin can produce nitric oxide (NO) when exposed to UV light, and NO thus produced has the potential to induce age associated changes in skin. This study was performed in order to screen a panel of cosmetics and skin care raw materials for their effect on NO production by RAW 264.7 cells.
Murine RAW 264.7 cells were seeded in a 96 well plate at 1×10^5 cells /well. The plate was incubated overnight. The following day, the cells were treated with the samples at 0.001, 0.01, and 0.1% for 2 hours. The samples are listed below in Table II. Following the exposure period, LPS was added to the wells at 100 ng/ml. The plate was incubated overnight. Equal volumes of culture supernatant and Griess reagent were incubated for 15 min at room temperature and the absorbance at 540 nm was read. The amount of nitrite in the samples was calculated from a standard curve generated with sodium nitrite.

[2] = system: Human dermal fibroblasts (Hs-27); assay: Elastin secretion by fibroblasts, energy booster samples with co-stimuli, Example 4; type: cell-based; conditions: Media line: stimulus alone, no energy booster (Centella asiatica, vitamin C 0.001%; Biodynes EMPP 0.1%)
Method: (§1) Four new samples that boost cellular energy were tested for their ability to augment extracellular matrix component production in response to Centella and Biodynes. Human dermal fibroblasts were used as these cells actively synthesize extracellular matrix components. In addition to measuring procollagen and elastin levels, hyaluronic acid levels were also measured. Hyaluronic acid is a member of the glycosaminoglycan family of compounds. Glycosaminoglycans make up the ground substance of connective tissue, and along with elastin, help provide elasticity to skin. They also hold water and therefore provide viscosity and hydrating properties.
(§2) Samples were diluted in media. Centella asiatica and vitamin C were prepared at 0.001%. Biodynes EMPP was prepared at 0.1%. Centella asiatica was prepared as an extract in DMSO:ethanol:water at 50:30:20. The “energy booster” samples, Seanergilium algae extract, Thiotaine, Sepitonic, and Phytovityl corn kernel extract, were all prepared in media at 0.01, 0.1, and 1.0%. Human dermal fibroblasts (Hs-27) were plated in 24 well plates and were incubated overnight. The cells were treated with the samples at the concentrations indicated for 2 consecutive days. […]

[3] = system: Human dermal fibroblasts (Hs-27); assay: Procollagen secretion by fibroblasts, energy booster samples with co-stimuli, Example 4; type: cell-based; conditions: Media line: stimulus alone, no energy booster (Centella asiatica, vitamin C 0.001%; Biodynes EMPP 0.1%); media control 1533
Method: as §1, §2

[4] = system: Human dermal fibroblasts (Hs-27); assay: Hyaluronic acid secretion by fibroblasts, energy booster samples with co-stimuli, Example 4; type: cell-based; conditions: Media line: stimulus alone, no energy booster (Centella asiatica, vitamin C 0.001%; Biodynes EMPP 0.1%); media control 1112
Method: as §1
Samples were diluted in media. Centella asiatica and vitamin C were prepared at 0.001%. Biodynes EMPP was prepared at 0.1%. Centella asiatica was prepared as an extract in DMSO:ethanol:water at 50:30:20. The “energy booster” samples, Seanergilium algae extract, Thiotaine, Sepitonic, and Phytovityl corn kernel extract, were all prepared in media at 0.01, 0.1, and 1.0%. Human dermal fibroblasts (Hs-27) were plated in 24 well plates and were incubated overnight. […]
Data are expressed as ng hyaluronic acid/ml culture supernatant. The amount of hyaluronic acid in each supernatant was calculated from a standard curve generated using a hyaluronic acid standard supplied with the ELISA kit.

Row | SMILES | effect on MMP-1 activity [1] | inhibitory effect on nitrite accumulation in culture supernatants (RAW 264.7 cells) | inhibitory effect on nitrite accumulation in culture supernatants (RAW 264.7 cells; listed as L6) | Nitrite produced (RAW 264.7 cells; dose 0.001%) | Nitrite produced (RAW 264.7 cells; dose 0.01%) | Nitrite produced (RAW 264.7 cells; dose 0.1%) | elastin secretion, % media control elastin [2] | procollagen secretion [3] | hyaluronic acid secretion [4]
1 | COC1=C(OC)C(=O)C(C/C=C(\C)CC/C=C(\C)CC/C=C(\C)CC/C=C(\C)CC/C=C(\C)CC/C=C(\C)CC/C=C(\C)CC/C=C(\C)CC/C=C(\C)CCC=C(C)C)=C(C)C1=O [CoQ10, 2,3,-dimethoxy-5-methyl-6-decaprenyl-benzoquinone] | most potent activators | – | – | – | – | – | – | – | –
2 | COc1cc2c(cc1O)CCC(C)(C)O2 [Lipochroman-6] | – | most potent | more inhibitory activity than do mixed tocopherols | 1006.5 ng/mL | 750.7 ng/mL | 336.7 ng/mL | – | – | –
3 | O=C1O[C@H]([C@@H](O)CO)C(O)=C1O [Vitamin C, ascorbic acid] | – | – | – | – | – | – | 148% | 1744 ng/mL | 633 ng hyaluronic acid/ml culture supernatant
4 | CC1=C(C)C(=O)C(CC[C@](C)(O)CCC[C@H](C)CCC[C@H](C)CCCC(C)C)=CC1=O [g-Tocopherylquinone S] | – | most potent | – | 754.2 ng/mL | 830.3 ng/mL | 217.9 ng/mL | – | – | –
